The test system of assay [1] is adult patients with RA. The assay can be described thus: Study 1: DAS28 change by CRP category. Type of assay: in vivo, human. As to the method:
(§1) 407 patients with active RA enrolled in the 2 study arms. Of these patients, 299 (73.5%) patients completed the study until Week 52 and were evaluated.
(§2) Patients were grouped into three cohorts based on baseline CRP concentrations: low (<1 mg/dL); intermediate (1-4 mg/dL); and high (>4 mg/dL). Analyses were further conducted in two categories of patients according to their change in CRP concentrations at Week 12: those with a ≧20% decrease in CRP from baseline; or those with a <20% decrease in CRP from baseline. The following efficacy and radiographic measures were analyzed at Week 52 in the three baseline CRP categories and in the two Week 12 change in CRP categories: DAS28, ACR 20/50/70, Health assessment questionnaire (HAQ), and Total Sharp score (TSS).

Assay [2] deals with adult patients with RA. The assay can be described thus: Study 1: HAQ change by CRP category. Type of assay: in vivo, human. As to the method:
as §1, §2

Assay [3] deals with patients with long-standing, moderate to severe RA. Briefly: Study 5 (open-label extension, adalimumab 40 mg eow + MTX, into 7th year): long-term efficacy (ACR, DAS28, TJC, SJC, HAQ) and withdrawals. Type of assay: in vivo, human. The conditions noted are these: Year 7. As to the method: After these trials, patients were eligible to enroll in two separate OLE studies: Study 4 and Study 5. Patients were evaluated for efficacy and safety every 3 months.
Efficacy outcomes were evaluated as observed data: DAS28; ACR 20/50/70; Tender Joint Count (TJC); Swollen Joint Count (SJC); and HAQ Disability Index. Baseline demographics and disease characteristics were similar in both Study 4 and Study 5 consistent with moderate to severe RA, as shown below in Table 64: […]

Assay [4] relates to patients with active rheumatoid arthritis. The note with it: Study A (N=2008), 12 weeks; cited from earlier work.
A further assay concerns patients with active RA. Briefly: Low-field MRI follow-up of finger joint inflammation (OMERACT-based scores, ESR, DAS28), Study A subset. Type of assay: in vivo, human. The protocol: The method included the following. […] Proximal interphalangeal and metacarpophalangeal joints of the dominant hands of these patients were examined by 0.2-Tesla MRI (C-Scan, Esaote, Italy). Clinical examinations and MRI were performed at baseline and during therapy for a mean period of 86 days (range: 42-126 days). The used sequences were coronal T1-weighted spin-echo; coronal short-tau inversion-recovery gradient-echo; and T1-weighted, 3D gradient-echo before and after administration of Gd-DTPA (0.2 mmol/kg body weight). Erythrocyte sedimentation rate (ESR) and Disease Activity Score 28 (DAS28) were measured at all time points. MRI was evaluated according to an Outcome Measures in Arthritis Clinical Trials or OMERACT-based semiquantitative scoring system. Scores were calculated for erosions (0-5 scale, maximum of 40), synovitis (0-3 scale, maximum of 24), and tenosynovitis (0-3 scale, maximum of 12).

[5] abbreviates: week 52, baseline CRP 1-4 mg/dL.

The values that follow come from US20120171123A1, “USES AND COMPOSITIONS FOR TREATMENT OF RHEUMATOID ARTHRITIS” (priority 2006, published 2012).

Consider `CN(Cc1cnc2nc(N)nc(N)c2n1)c1ccc(C(=O)N[C@@H](CCC(=O)O)C(=O)O)cc1` [mtx alone, methotrexate], for which the DAS28 mean change was −1.2 in the assay with adult patients with RA [1] (setting [5]); −1.3 in the assay on adult patients with RA [1] (week 52, baseline CRP <1 mg/dL); −1.7 in the assay with adult patients with RA [1] (week 52, baseline CRP >4 mg/dL). In addition, the “mean change in HAQ” value is reported as −0.29 with adult patients with RA [2] (week 52, <20% decrease in CRP at week 12) and −0.48 with adult patients with RA [2] (week 52, ≧20% decrease in CRP at week 12). The HAQ mean change in the assay with adult patients with RA [2] (setting [5]) is −0.4; in the assay with adult patients with RA [2] (week 52, baseline CRP <1 mg/dL), −0.4; in the assay on adult patients with RA [2] (week 52, baseline CRP >4 mg/dL), −0.3.
As to “adalimumab: human anti-TNF mAb (HUMIRA, Abbott Laboratories), described in U.S. Pat. No. 6,090,382 as D2E7”, the “patients achieving clinical remission (DAS28<2.6)” value in assay [3] is given as “Over 40%”. The “DAS28 (mean), change from baseline” value in assay [4] is recorded as −2.1. Besides, in the assay with patients with active RA (after therapy (33.0 before)), the “mean ESR” value is 16.2 mm/hr. Besides, the “mean DAS28” value with patients with active RA (after therapy (baseline 6.1)) came to 3.8. The “median tenosynovitis MRI score (max 12)” value in the assay on patients with active RA (during therapy (baseline 3)) is on record as 1.5. Moreover, the “median erosion MRI score (max 40)” value in the assay on patients with active RA (during therapy (baseline 6.5), not significant) is reported as 4.5. Besides, in the assay with patients with active RA (during therapy, mean 86 days (baseline 11), n=16), the “median synovitis MRI score (max 24)” value came out at 9.
